# Assay results published in paper PMC7044277 (Nature Communications, 2020).
# “And” between values parts separate entries of the source, which are not always exact repeats. Equal entries are not always repeated.
# Columns and labels:
# Type in all cases: cell-based
# [1] = biological target: T1, 320 non-olfactory GPCRs (Homo sapiens, UniProt P37288)
# T1 construct: expressed in transfected cells; host or cells: HTLA cells
# [2] = biological target: T2, 320 non-olfactory GPCRs (Homo sapiens, UniProt P46091)
# T2 construct: expressed in transfected cells; host or cells: HTLA cells
# T2 sequence (P46091 whole entry): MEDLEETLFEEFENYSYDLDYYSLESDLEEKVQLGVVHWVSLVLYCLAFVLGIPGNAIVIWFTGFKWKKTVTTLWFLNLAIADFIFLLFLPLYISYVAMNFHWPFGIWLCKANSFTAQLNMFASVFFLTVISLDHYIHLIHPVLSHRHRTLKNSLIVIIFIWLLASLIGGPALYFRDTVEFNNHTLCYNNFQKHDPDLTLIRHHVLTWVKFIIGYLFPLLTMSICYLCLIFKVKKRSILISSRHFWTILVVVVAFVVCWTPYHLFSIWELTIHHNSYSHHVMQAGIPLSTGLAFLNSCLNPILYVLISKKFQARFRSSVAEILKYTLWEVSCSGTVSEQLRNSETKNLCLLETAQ
# [3] = biological target: 320 non-olfactory GPCRs (Homo sapiens, UniProt P41146); details: receptor OPRL1; replicate values, Fig_4g
# 320 non-olfactory GPCRs (Homo sapiens, UniProt P41146), sequence (P41146 whole entry): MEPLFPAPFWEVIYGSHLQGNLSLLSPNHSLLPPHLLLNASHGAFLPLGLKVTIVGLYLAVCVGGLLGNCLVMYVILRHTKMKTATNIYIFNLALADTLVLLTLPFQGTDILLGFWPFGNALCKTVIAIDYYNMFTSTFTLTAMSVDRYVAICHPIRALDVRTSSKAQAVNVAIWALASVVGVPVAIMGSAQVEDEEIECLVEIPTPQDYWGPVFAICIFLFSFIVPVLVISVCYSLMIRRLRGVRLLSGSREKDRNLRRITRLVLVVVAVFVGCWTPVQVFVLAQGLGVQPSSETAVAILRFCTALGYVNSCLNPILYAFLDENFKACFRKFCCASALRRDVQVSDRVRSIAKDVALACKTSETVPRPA
# [4] = biological target: T3, 320 non-olfactory GPCRs (Homo sapiens, UniProt Q96G91); details: receptor P2RY11; replicate values, Fig_4g
# T3 construct: expressed in transfected cells; host or cells: HTLA cells
# T3 sequence (Q96G91 whole entry): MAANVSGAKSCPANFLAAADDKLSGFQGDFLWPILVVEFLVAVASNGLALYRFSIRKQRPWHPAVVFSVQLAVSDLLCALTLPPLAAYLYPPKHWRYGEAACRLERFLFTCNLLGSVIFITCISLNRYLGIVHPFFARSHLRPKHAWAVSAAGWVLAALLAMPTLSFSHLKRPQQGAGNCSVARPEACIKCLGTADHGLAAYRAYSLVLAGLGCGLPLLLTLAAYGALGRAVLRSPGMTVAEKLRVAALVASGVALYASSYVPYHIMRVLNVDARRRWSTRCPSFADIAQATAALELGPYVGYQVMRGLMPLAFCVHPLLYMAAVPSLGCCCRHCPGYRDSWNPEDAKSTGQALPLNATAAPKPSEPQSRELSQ
# 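For Fold of Basal in this document: compound tested at 1 µM final concentration.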
# 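For GPCRome agonism screen response in this document: fold over basal response of each receptor without drug.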
# T1 sequence (P37288 whole entry): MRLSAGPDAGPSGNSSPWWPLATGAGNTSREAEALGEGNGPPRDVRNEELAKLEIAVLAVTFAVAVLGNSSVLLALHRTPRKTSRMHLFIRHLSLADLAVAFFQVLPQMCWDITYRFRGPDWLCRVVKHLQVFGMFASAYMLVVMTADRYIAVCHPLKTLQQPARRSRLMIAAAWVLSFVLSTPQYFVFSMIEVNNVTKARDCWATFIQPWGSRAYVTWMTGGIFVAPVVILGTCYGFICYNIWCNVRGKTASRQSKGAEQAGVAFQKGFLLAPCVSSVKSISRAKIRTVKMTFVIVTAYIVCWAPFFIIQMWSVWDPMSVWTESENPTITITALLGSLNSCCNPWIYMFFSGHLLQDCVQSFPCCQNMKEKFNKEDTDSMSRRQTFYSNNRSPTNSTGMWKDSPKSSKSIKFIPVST
compound,measurement,setting,value
CCOc1cccc2cc(C(C)NCC3(O)CCCCC3)oc12 (stereo not shown) [O4LE6],Fold of Basal,[1],0.5721 and 0.4612 and 0.3897 and 0.4481
same,Fold of Basal,[2],1.745 and 1.544 and 1.297 and 1.2172
same,GPCRome agonism screen response,[3],0.6174 and 0.5517 and 0.7699 and 0.8115
same,GPCRome agonism screen response,[4],1.047 and 1.146 and 1.063 and 1.471
